In ChEMBL document CHEMBL3046509, “Synthesis and structure--activity relationships of substituted cinnamic acids and amide analogues: a new class of herbicides” (2009) one finds inhibition data, which are given here for 26 molecules.

Experiment in all cases: whole plant or invertebrate
Holding throughout (assay type): functional
Holding throughout (details): Raphanus sativus, Japanese White, 120 h

Test [1] deals with Radish.
Description: Herbicidal activity against Raphanus sativus var.Japanese White (radish) assessed as inhibition of seed germination at 100 ppm at 25 degC measured after 5 days
In test [2] the test system is Radish. This is another data set of the same source.
Description: Herbicidal activity against Raphanus sativus var.Japanese White (radish) assessed as inhibition of seed germination at 200 ppm at 25 degC measured after 5 days
The test system of test [3] is Radish. The source holds these as a separate data set.
Description: Herbicidal activity against Raphanus sativus var.Japanese White (radish) assessed as inhibition of seed germination at 50 ppm at 25 degC measured after 5 days

Turning to `O=C(/C=C/c1ccccc1[N+](=O)[O-])Nc1ccccc1`, 100 ppm produced 86.7% inhibition in the test with Radish [1]. In addition, in the test with Radish [2], the inhibition at 200 ppm was determined as 100%. This molecule also gave an inhibition at 50 ppm in the test with Radish [3] of 73.3%.

In the test with Radish [1], `COc1ccc(/C=C/C(=O)Nc2ccc(C)cc2)cc1` registered an inhibition at 100 ppm of 93.3%. The molecule further gave an inhibition at 200 ppm with Radish [2] of 100%. In the test on Radish [3], this molecule gave an inhibition at 50 ppm of 70%.

`O=C(O)/C=C/c1ccccc1[N+](=O)[O-]` returned an inhibition at 100 ppm with Radish [1] of 86.7%. The same molecule gave an inhibition at 200 ppm with Radish [2] of 100%. For the same molecule, the inhibition at 50 ppm in the test on Radish [3] is 70%.

In turn, `O=C(/C=C/c1ccccc1[N+](=O)[O-])Nc1ccccc1Cl` showed an inhibition at 100 ppm in the test on Radish [1] of 93.3%. The same molecule showed an inhibition at 200 ppm in the test with Radish [2] of 100%. Moreover, in the test on Radish [3], the inhibition at 50 ppm turned out to be 86.7%.

In the test with Radish [1], `O=C(/C=C/c1cccc([N+](=O)[O-])c1)Nc1ccccc1Cl` showed an inhibition at 100 ppm of 93.3%. The molecule also gave an inhibition at 200 ppm in the test on Radish [2] of 100%. Also, the inhibition at 50 ppm with Radish [3] is 83.3%.

As to `O=C(/C=C/c1ccc([N+](=O)[O-])cc1)Nc1ccccc1Cl`, in the test on Radish [1], at 100 ppm the inhibition was 86.7%. Moreover, in the test on Radish [2], the inhibition at 200 ppm was 100%. Further, in the test with Radish [3], testing at 50 ppm gave an inhibition of 80%.

In the case of `O=C(/C=C/c1cccc(Cl)c1)Nc1ccccc1Cl`, testing at 100 ppm in the test with Radish [1] gave an inhibition of 53.3%. The same molecule returned an inhibition at 200 ppm in the test on Radish [2] of 76.7%. Also, at 50 ppm the inhibition with Radish [3] was 33.3%.

Consider `COc1ccc(/C=C/C(=O)Nc2ccccc2Cl)cc1`, for which the inhibition at 100 ppm in the test on Radish [1] came to 83.3%. Further, testing at 200 ppm in the test with Radish [2] gave an inhibition of 96.7%. Further, testing at 50 ppm with Radish [3] gave an inhibition of 76.7%.

Molecule `O=C(/C=C/c1cccc(O)c1)Nc1ccccc1Cl` came in with an inhibition at 100 ppm in the test on Radish [1] of 80%. At 200 ppm the inhibition with Radish [2] was 93.3%. The molecule further registered an inhibition at 50 ppm with Radish [3] of 56.7%.

Molecule `O=C(O)/C=C/c1cccc(O)c1` showed an inhibition at 100 ppm in the test with Radish [1] of 86.7%. The inhibition at 200 ppm with Radish [2] worked out at 100%. 50 ppm produced 56.7% inhibition in the test with Radish [3].

The molecule `O=C(O)/C=C/c1ccc([N+](=O)[O-])cc1` displayed an inhibition at 100 ppm with Radish [1] of 93.3%. The molecule also displayed an inhibition at 200 ppm in the test with Radish [2] of 96.7%. The molecule further had an inhibition at 50 ppm in the test on Radish [3] of 70%.

As to `O=C(/C=C/c1cccc(Cl)c1)Nc1ccccc1` [3-CHLORO-CINNAMANILIDE], in the test on Radish [1], the inhibition at 100 ppm is 93.3%. Moreover, the inhibition at 200 ppm with Radish [2] was 100%. This molecule also returned an inhibition at 50 ppm in the test on Radish [3] of 70%.

In turn, `O=C(O)/C=C/c1cccc(Cl)c1` [3-CHLORO-CINNAMIC ACID] came in with an inhibition at 100 ppm with Radish [1] of 76.7%. In the test with Radish [2], this molecule gave an inhibition at 200 ppm of 93.3%. This molecule also yielded an inhibition at 50 ppm in the test on Radish [3] of 53.3%.

With `O=C(/C=C/c1cccc(O)c1)Nc1ccccc1` [3-HYDROXY-CINNAMANILIDE], 100 ppm produced 86.7% inhibition in the test on Radish [1]. Moreover, in the test with Radish [2], testing at 200 ppm gave an inhibition of 100%. Also, the inhibition at 50 ppm in the test on Radish [3] was found to be 53.3%.

`O=C(/C=C/c1cccc([N+](=O)[O-])c1)Nc1ccccc1` [3-NITRO-CINNAMANILIDE] yielded an inhibition at 100 ppm in the test with Radish [1] of 73.3%. The molecule also came in with an inhibition at 200 ppm with Radish [2] of 100%. In addition, 50 ppm produced 70% inhibition in the test on Radish [3].

In the case of `O=C(O)/C=C/c1cccc([N+](=O)[O-])c1` [3-NITRO-CINNAMIC ACID], in the test with Radish [1], the inhibition at 100 ppm amounted to 80%. The molecule also registered an inhibition at 200 ppm in the test with Radish [2] of 100%. In the test with Radish [3], this molecule registered an inhibition at 50 ppm of 70.3%.

In the test with Radish [1], `COc1ccc(/C=C/C(=O)Nc2ccccc2)cc1` [4-METHOXY-CINNAMANILIDE] had an inhibition at 100 ppm of 76.7%. Besides, in the test on Radish [2], the inhibition at 200 ppm was determined as 93.3%. Testing at 50 ppm with Radish [3] gave an inhibition of 53.3%.

For the molecule `COc1ccc(/C=C/C(=O)O)cc1` [4-METHOXYCINNAMIC ACID], the inhibition at 100 ppm in the test with Radish [1] was found to be 66.7%. The same molecule returned an inhibition at 200 ppm in the test on Radish [2] of 93.3%. The same molecule yielded an inhibition at 50 ppm in the test on Radish [3] of 56.7%.

In the case of `Cc1ccc(NC(=O)/C=C/c2ccccc2[N+](=O)[O-])cc1` [4-METHYL-(2'-NITRO)CINNAMANILIDE], in the test with Radish [1], 100 ppm produced 80% inhibition. This molecule came in with an inhibition at 200 ppm with Radish [2] of 93.3%. Moreover, in the test on Radish [3], the inhibition at 50 ppm was 63.3%.

In the case of `Cc1ccc(NC(=O)/C=C/c2cccc(Cl)c2)cc1` [4-METHYL-(3'-CHLORO)CINNAMANILIDE], in the test on Radish [1], the inhibition at 100 ppm is 83.3%. The same molecule registered an inhibition at 200 ppm in the test on Radish [2] of 93.3%. This molecule also had an inhibition at 50 ppm with Radish [3] of 70%.

As to `Cc1ccc(NC(=O)/C=C/c2cccc([N+](=O)[O-])c2)cc1` [4-METHYL-(3'-NITRO)CINNAMANILIDE], the inhibition at 100 ppm in the test on Radish [1] worked out at 86.7%. For the same molecule, in the test on Radish [2], 200 ppm produced 96.7% inhibition. Further, at 50 ppm the inhibition in the test with Radish [3] was 73.3%.

`O=C(/C=C/c1ccccc1[N+](=O)[O-])Nc1ccc([N+](=O)[O-])cc1` [4-NITRO-(2'-NITRO)CINNAMANILIDE]: the inhibition at 100 ppm with Radish [1] turned out to be 86.7%. The same molecule registered an inhibition at 200 ppm with Radish [2] of 96.7%. The inhibition at 50 ppm with Radish [3] came out at 73.3%.

With `O=C(/C=C/c1ccc([N+](=O)[O-])cc1)Nc1ccc([N+](=O)[O-])cc1` [4-NITRO-(4'-NITRO)CINNAMANILIDE], the inhibition at 100 ppm in the test on Radish [1] worked out at 66.7%. The inhibition at 200 ppm with Radish [2] was 93.3%. The same molecule came in with an inhibition at 50 ppm in the test with Radish [3] of 60%.

As for `O=C(/C=C/c1ccc([N+](=O)[O-])cc1)Nc1ccccc1` [4-NITRO-CINNAMANILIDE], testing at 100 ppm with Radish [1] gave an inhibition of 90%. In addition, the inhibition at 200 ppm with Radish [2] was 100%. In the test with Radish [3], the inhibition at 50 ppm worked out at 83.3%.

With `O=C(O)/C=C/c1ccc(O)cc1` [COUMARIC ACID], at 100 ppm the inhibition in the test on Radish [1] was 73.3%. The molecule further returned an inhibition at 200 ppm in the test on Radish [2] of 100%. Moreover, the inhibition at 50 ppm in the test with Radish [3] was determined as 53.3%.

The molecule `CSc1nnc(C(C)(C)C)c(=O)n1N` [METRIBUZIN] displayed an inhibition at 100 ppm in the test on Radish [1] of 93.3%. The molecule also came in with an inhibition at 200 ppm with Radish [2] of 100%. The inhibition at 50 ppm with Radish [3] came out at 80%.
